According to patent publication US8642837B2, “Method to increase pathogen resistance in plants” (Expressive Research B.V., priority 2004, dated 2014):

System: callose deposition
Experiment: Callose deposition in plants tested with Peronospora parasitica
Type: in vivo, Arabidopsis
Settings: treatment with BABA, positive control

SMILES: CC(N)CC(=O)O (stereo not drawn) [BABA, β-aminobutyric acid]
- callose deposition: increased
